Patent US10662193B2, “Carbazole and carboline compounds for use in the diagnosis, treatment, alleviation or prevention of disorders associated with amyloid or amyloid-like proteins” (AC IMMUNE SA, priority 2014, dated 2020)
Like-named read-outs stand apart in the source and are kept apart here.

Assays:
[1] = test system: tau tangles/Aβ plaques on AD brain sections; assay: Assay 1: direct staining of human Alzheimer's disease brain sections (fluorescence); format: binding; design: key to Direct staining of tau tangles/Aβ plaques on AD brain sections at 100 μM / Direct staining of tau tangles on AD brain sections at 100 μM / Direct staining of Aβ plaques on AD brain sections at 100 μM / Direct staining of tau tangles on AD brain sections (footnote a: at 250 μM): − (No); +++ (strong); ++ (good); + (weak); conditions: for Direct staining of tau tangles/Aβ plaques on AD brain sections at 100 μM / Direct staining of tau tangles on AD brain sections at 100 μM: 100 μM compound; for Direct staining of tau tangles/Aβ plaques on AD brain sections at 100 μM: human AD brain sections, fluorescence, cell does not say tangles or plaques
In short: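 Frozen […] amygdala sections from Braak V-VI AD donors, PFA-fixed, incubated with compound at 100 μM in 50% ethanol for 20 min at room temperature in the dark. Sudan Black quenched autofluorescence, then staining detected by fluorescence microscopy.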

[2] = test system: tau tangles on AD brain section; assay: Assay 1: displacement of RefA on human AD brain sections (fluorescence); format: binding; conditions: for Selectivity (tau/Abeta): ratio of competition on tau tangles to competition on Aβ plaques
Description: Direct Binding of Compounds of this Invention to Human Alzheimer's Disease Brain Sections and/or Displacement of RefA and Compound B
Frozen sections with a thickness of […] from the amygdala of donors diagnosed with Braak stage V-VI Alzheimer's Disease (Braak, H.; Braak, E. Acta Neuropathol., 1991, 82, 239-259), were purchased from a commercial provider (Tissue Solutions) and kept at −80° C. until use.
Displacement of RefA and Compound B
Brain sections were mainly treated as described above. Test compounds were, however, incubated on the section at 250 μM in 50% ethanol for 20 min at room temperature, and then directly incubated with the fluorescent reference compounds RefA and Compound B, each at 1 μM in 50% ethanol for 20 min at room temperature. RefA and Compound B stainings were visualized using the 470 nm and 365 nm excitation filters, respectively. Images were acquired, and tangles and plaques quantified using the NIS-Element software. Only those compounds not directly staining tangles or plaques at the same wavelengths as RefA and Compound B were tested in the displacement assay.
Structure of RefA (Tago et al., J. Label. Compd. Radiopharm. 2013, DOI: 10.1002/jlcr.3133)

[3] = test system: Aβ plaques on AD brain section; assay: Assay 1: displacement of Compound B on human AD brain sections (fluorescence); format: binding
Description: Direct Binding of Compounds of this Invention to Human Alzheimer's Disease Brain Sections and/or Displacement of RefA and Compound B Frozen sections with a thickness of […] from the amygdala of donors diagnosed with Braak stage V-VI Alzheimer's Disease (Braak, H.; Braak, E. Acta Neuropathol., 1991, 82, 239-259), were purchased from a commercial provider (Tissue Solutions) and kept at -80° C. until use. Displacement of RefA and Compound B Brain sections were mainly treated as described above. Test compounds were, however, incubated on the section at 250 μM in 50% ethanol for 20 min at room temperature, and then directly incubated with the fluorescent reference compounds RefA and Compound B, each at 1 μM in 50% ethanol for 20 min at room temperature. RefA and Compound B stainings were visualized using the 470 nm and 365 nm excitation filters, respectively. Images were acquired, and tangles and plaques quantified using the NIS-Element software. Only those compounds not directly staining tangles or plaques at the same wavelengths as RefA and Compound B were tested in the displacement assay. Structure of Compound B (prepared by a similar procedure described for […] in WO2010/011964): […]

AD brain-enriched PHF = AD brain-enriched PHF (Homo sapiens, UniProt P10636); assay: Assay 2 (filter trap): [3H]RefA radio-binding competition assay and Ki on PHF; conditions: [^3H]RefA 10 nM; for Ki: PHF diluted 1/80, compound 0.12 nM to 50 μM
Sequence of AD brain-enriched PHF (P10636 623-708 limits assumed): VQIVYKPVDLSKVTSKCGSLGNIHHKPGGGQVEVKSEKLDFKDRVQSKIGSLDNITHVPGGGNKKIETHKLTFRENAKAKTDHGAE
Description: Displacement of [^3H]RefA by Compounds of this Invention
50 g of frontal lobe tissue from post-mortem brain of an Alzheimer's disease (AD) patient were obtained from the London Tissue Bank. The patient was a […] and died […]. The brain sample was collected 5 hours post-mortem and characterized for Braak disease stage (Braak, H.; Braak, E. Acta Neuropathol., 1991, 82, 239-259) as stage VI. For the enrichment of PHF's, around 15 g of the AD human brain was thawed on ice and homogenized with 50 ml of homogenization buffer [0.75 M NaCl in RAB buffer (100 mM 2-(N-morpholino) ethanesulfonic acid (MES), 1 mM EGTA, 0.5 mM MgSO4, 2 mM DTT, pH 6.8) supplemented with protease inhibitors (Complete; Roche 11697498001) in a glass Dounce homogenizer. The homogenate was then incubated at 4° C. for 20 min to let any residual microtubules depolymerize, before the homogenate was transferred into polycarbonate centrifuge bottles (16×76 mm; Beckman 355603) and centrifuged at 11,000 g (12,700 RPM) in an ultracentrifuge (Beckman, XL100K) for 20 min at 4° C. using the pre-cooled 70.1 rotor (Beckman, 342184). Pellets were kept on ice. Supernatants were pooled into polycarbonate bottles and centrifuged again at 100,000 g (38,000 RPM) for 1 h at 4° C. in the 70.1 Ti rotor to isolate PHF-rich pellets, whereas soluble tau remained in the supernatants. The pellets from the first and second centrifugations were re-suspended in 120 mL of extraction buffer [10 mM Tris-HCl pH 7.4, 10% sucrose, 0.85 M NaCl, 1% protease inhibitor (Calbiochem 539131), 1 mM EGTA, 1% phosphatase inhibitor (Sigma P5726 and P0044)]. The solution was then transferred into polycarbonate centrifuge bottles (16×76 mm; Beckman 355603) and centrifuged at 15,000 g (14,800 RPM) in an ultracentrifuge (Beckman, XL100K) for 20 min at 4° C. using the 70.1 Ti rotor. In the presence of 10% sucrose and at low speed centrifugation, most PHF remained in the supernatant whereas intact or fragmented NFTs and larger PHF aggregates were pelleted. The pellets were discarded. 20% Sarkosyl (Sigma L7414-10ML) was added to the supernatants to a final concentration of 1% and stirred at room temperature for 1 h. This solution was then centrifuged into polycarbonate bottles at 100,000 g (38,000 RPM) for 1 h at 4° C. in the 70.1 Ti rotor, and the pellets containing PHF-rich material were re-suspended in a total final volume of 1.5 mL of PBS, aliquoted and stored at −80° C.
[^3H]RefA Radio-Binding Competition Assay
AD brain-enriched PHF diluted 1/80 were incubated in the presence of [^3H]RefA at 10 nM and the example compounds of this invention at 2.5 μM (250× excess), for 45 minutes at 37° C. Samples were then analyzed by on GF/B filter plates as described above (in the section “[^3H]RefA radio-binding assay and determination of the dissociation constant (Kd)). Non-specific signal was determined again with an excess of un-labeled RefA and specific binding calculated by subtracting the non-specific signal from the total signal. Competition was calculated as percent, where 0% was defined as the specific binding in the presence of vehicle (2.8% DMSO in PBS) and 100% as the values obtained in the presence of excess cold RefA. Similar assays were performed to determine the competition of the cold compounds on [^3H]RefA on in vitro aggregated recombinant human tau or Abeta1-42 For both recombinant proteins, 20 μg/mL of aggregates were incubated with 10 nM of [^3H]RefA for recombinant human tau or 80 nM of [^3H]RefA for recombinant human Abeta1-42.
Determination of the Binding Affinity (Ki)
Samples were then analyzed on GF/B filter plates as described above and Ki values calculated using Prism V5 (GraphPad).

[4] = molecular target: Tau enriched paired helical filaments (PHF) from human Alzheimer's disease (AD) brains (Homo sapiens, UniProt P10636); assay: Assay 3: backscattering interferometry, dissociation constants (Kd); format: binding
Sequence of Tau enriched paired helical filaments (PHF) from human Alzheimer's disease (AD) brains (P10636 623-708 limits assumed): as above
Excerpt: Assay 3 (Backscattering Interferometry):
Determination of Dissociation Constants (Kd) of Compounds of this Invention
Enrichment of Paired Helical Filaments (PHF's) from Human Alzheimer's Disease Brains
For backscattering interferometry, Tau enriched paired helical filaments (PHF) from human Alzheimer's disease (AD) brains were used as a target. Due to the limited availability of tissues, to determine dissociation constants (Kd) of compounds of this invention to the target, two different batches of enriched PHF were used. These batches are identified as batch 6 and 7 and were prepared as follows.
PHF batch number 6 was prepared starting from 25 g frontal cortical tissue from post-mortem brains of 25 Alzheimer's disease (AD) patients which were obtained from the London Tissue Bank. The mean age at death for the AD patients was 76 years (48% females). Brain samples were characterized for Braak disease stage (Braak and Braak, 1991), with most donors displaying a stage VI. The postmortem interval between death and brain dissection was between 6 and 65 h. Human brain homogenates were prepared by SB Drug Discovery (Glasgow, Scotland, UK) from the post-mortem cortical tissue of the 25 patients). Each tissue (1 g) was homogenized with a Dounce glass homogenizer in 1.5 mL 100 mM 2-(N-morpholino) ethane-sulfonic acid (MES) pH 6.8, 0.75 M NaCl, 1 mM EGTA, 0.5 mM MgSO4, 2 mM DTT containing protease inhibitors (Complete; Roche 11697498001). For each sample, two aliquots containing 0.5 g brain homogenates in 0.75 mL were shipped to AC Immune SA on dry ice and stored at −80° C. For the enrichment of PHF, 1 aliquot per donor corresponding to total 12.5 g of brain tissue were thawed on ice and then incubated at 4° C. for 20 min to depolymerize any residual microtubules. All samples were then pooled and transferred to three polycarbonate centrifuge bottles (16×76 mm; Beckman 355603).
PHF batch number 7 was prepared starting from 32 g of parietal cortex tissue from post-mortem brain of one Alzheimer's disease (AD) patient was obtained from an external provider (Tissue Solution). The patient was a person who died for end stage AD. The brain sample was collected 5 h post-mortem and characterized for Braak disease stage (Braak and Braak, 1991) as stage VI. The method used for the PHF enrichment was modified from published procedures (Jicha et al., 1997; Rostagno and Ghiso, 2009). Around 16 g of the AD human brain was thawed on ice and homogenized with 50 ml of homogenization buffer [0.75 M NaCl in RAB buffer (100 mM 2-(N-morpholino) ethanesulfonic acid (MES), 1 mM EGTA, 0.5 mM MgSO4, 2 mM DTT, pH 6.8) supplemented with protease inhibitors (Complete; Roche 11697498001)] in a glass Dounce homogenizer. The homogenate was then incubated at 4° C. for 20 min to let depolymerize any residual microtubules, before being transferred into polycarbonate centrifuge bottles (16×76 mm; Beckman 355603). For both purifications, brain homogenates were then centrifuged at 11,000 g (12,700 RPM) in an ultracentrifuge (Beckman, XL100K) for 20 min at 4° C. using the pre-cooled 70.1 rotor (Beckman, 342184). Pellets were kept on ice. Supernatants were pooled into polycarbonate bottles and centrifuged again at 100,000 g (38,000 RPM) for 1 h at 4° C. in the 70.1 Ti rotor to isolate PHF-rich pellets, whereas soluble Tau remained in the supernatants. The pellets from the first and second centrifugations were resuspended in 120 mL of extraction buffer [10 mM Tris-HCl pH 7.4, 10% sucrose, 0.85 M NaCl, 1% protease inhibitor (Calbiochem 539131), 1 mM EGTA, 1% phosphatase inhibitor (Sigma P5726 and P0044)]. The solution was then transferred into polycarbonate centrifuge bottles (16×76 mm; Beckman 355603) and centrifuged at 15,000 g (14,800 RPM) in an ultracentrifuge (Beckman, XL100K) for 20 min at 4° C. using the 70.1 Ti rotor. […]

[5] = PHF batch 6 (pooled frontal cortex, 25 AD patients), read-out: [Kd] on PHF batch 6
[6] = PHF batch 7 (parietal cortex, one AD patient), read-out: [Kd] on PHF batch 7

Competition on AD brain section tau tangles (1 μM RefA vs. 250 μM compound) [2] | Selectivity (tau/Abeta) [2] | Competition on AD brain section Aβ plaques (1 μM Compound B vs 250 μM compound) [3] | Ki (AD brain-enriched PHF) | Kd [4, 5] | Kd [4, 6] | SMILES | Direct staining of tau tangles/Aβ plaques on AD brain sections at 100 μM [1] | Direct staining of tau tangles on AD brain sections at 100 μM ([1]; tangles) | further results
91% | ~5.4 fold | 17% | 0.0033 µM |  |  | Cn1c2ccncc2c2ccc(Nc3cccc(OC(F)F)c3)nc21 [Example 4] |  |  | Direct staining of tau tangles on AD brain sections (footnote a: at 250 μM) ([1]; 250 μM compound, tangles): + (tangles)^a
0% |  | 12% | 0.305 µM |  |  | Cn1c2ccncc2c2ccc(Nc3ccc(F)cc3N3CCOCC3)nc21 [Example 5] | − |  | 
84% | >84 fold | 0% | 0.326 µM |  |  | Cn1c2ccncc2c2ccc(Nc3cc(F)cc(N4CCOCC4)c3)nc21 [Example 7] |  | ++ (tangles) | 
98% | >98 fold | 0% | 0.165 µM |  |  | Cn1c2ccncc2c2ccc(Nc3cccc(N4CCOCC4)c3F)nc21 [Example 12] | − |  | 
 |  |  |  | 0.038 ± 0.006 µM | 0.011 ± 0.002 µM | Cn1c2ccncc2c2ccc(Nc3ccnc(F)c3)nc21 [Example 23] |  |  | 
 |  |  |  |  | 0.4 ± 0.06 µM | Cn1c2ccncc2c2ccc(Nc3cccc(F)n3)nc21 [Example 28] |  | + (tangles) | 
 |  |  |  |  | 0.26 ± 0.05 µM | Cn1c2ccncc2c2ccc(Nc3cc(F)ccn3)nc21 [Example 51] |  | +++ (tangles) | 
 |  |  |  | 0.02 ± 0.003 µM |  | Cn1c2ccncc2c2ccc(Nc3cc(OCCF)ccn3)nc21 [Example 63] |  |  | 
6% |  | 0% |  |  |  | CN1CCc2c(c3ccc(Nc4ccc(F)cc4N4CCOCC4)nc3n2C)C1=O [Example 175] | − |  | inhibition at 2.5 µM (AD brain-enriched PHF; compound 2.5 μM, no Ki determined): < 50%
 |  |  |  | 0.046 ± 0.009 µM |  | Cn1c2c(c3ccc(Nc4cccc(OCCF)c4)nc31)C(=O)NCC2 [drawing 1063] |  |  | 
